The source of these data is US9623030B2, “Tumescent antibiotic solution” (priority 2004, dated 2017).

Usually MIC stands for the lowest concentration found to suppress growth.

Structures are written as SMILES. Converted amounts (≈) assume the structure as drawn.

The test system of data set [1] is platelet aggregation. Particulars: cited from earlier work.
For data set [2] the following is noted: cited from earlier work.
Data set [3] relates to S. aureus. Particulars: effect increases with greater duration of exposure; cited from earlier work.
For data set [4] the following is noted: female, human, in vivo. On the procedure:
A clinical pharmacologic investigation was conducted to compare the pharmacokinetic advantages of two modes of systemic antibiotic delivery, Tumescent antibiotic delivery (TAD), which involves the delivery of a relatively large volume of an antibiotic-containing solution to the subcutaneous compartment, and intravenous antibiotic delivery (IVAD), which results in direct delivery of antibiotics to the blood stream, for prophylaxis of SSI.
With Institutional Review Board (IRB) approval, the absorption pharmacokinetics of tumescent antibiotic delivery (TAD) and intravenous antibiotic delivery (IVAD) were tested in human subjects and the antibiotic delivery modes were evaluated with respect to the area under the curve (AUC) of antibiotic concentration as a function of time and peak antibiotic concentration (Cmax) in serum and TISF. 4 female subjects participated in at least one study, one subject volunteered for 2 separate studies. 5 studies were conducted: 3 involved TAD to the abdomen, 1 involved TAD to the hips and outer thighs and 1 involved TAD to the breasts. […] Each of the 5 studies consisted of 2 to 3 pharmacokinetic procedures, for a total of 14 procedures. Any procedures conducted on an individual subject were separated by at least one week. In 13 procedures only IVAD or TAD, was used. […]

For data set [5] the following is noted: 1 gm given at the end of the surgery; 405 abdominal surgery patients; cited from earlier work.
In data set [6] the test system is Staphyloccus aureus (MRSA) ATCC 33592. The experiment in a line: Minimum Inhibitory Concentration (MIC) by dilution. Particulars: Staphylococcus aureus, read-out: MIC.
Procedure: Following inoculation, survival of test microorganisms was determined.

In the case of `CCN(CC)CC(=O)Nc1c(C)cccc1C` [Lidocaine], the “lidocaine concentration consistently inhibiting in-vitro platelet aggregation” value in data set [1] (aggregation induced by ADP, epinephrine and collagen) was no less than 0.5 mg/mL. Besides, the “effect on platelet aggregation” value in data set [1] (safe systemic concentrations (≦6 micrograms/ml)) is recorded as “no effect”. In data set [2] (adults, TLA without liposuction), the “maximum safe mg/kg dosage of tumescent lidocaine (estimated)” value is recorded as 30 mg/kg. In addition, the “dosage limitation approved by the FDA for infiltration local anesthesia” value in data set [2] (commercial lidocaine (1%) with epinephrine (1:100,000)) is given as 7 mg/kg. In addition, in data set [2] (routine local anesthesia), the “duration of local anesthesia” value was 2 h. Besides, in data set [3], the “bactericidal effect in vitro” value is recorded as “bactericidal”.

Take `Cc1ncc([N+](=O)[O-])n1CCO` [Metronidazole]: in data set [4], the “interval in which serum concentration of metronidazole exceeded 4 μg/ml” value fell in the range of 0 to 12 h.

For `O=C(Cc1cccs1)N[C@@H]1C(=O)N2C(C(=O)[O-])=C(C[n+]3ccccc3)CS[C@H]12` [cephaloridine], the “incidence of wound infection, intravenous vs intra incisional” value in data set [5] is “no significant difference”.

On to `Cc1nnc(SCC2=C(C(=O)O)N3C(=O)[C@@H](NC(=O)Cn4cnnn4)[C@H]3SC2)s1` [Cefazolin], for which the MIC in data set [6] lay within 125 to 250 µg/mL (≈ 275 to 550 µM).
